Data on 3 molecules can be found in publication PMC9090415, “Discovery of small molecule inhibitors of Plasmodium falciparum apicoplast DNA polymerase” (Journal of Enzyme Inhibition and Medicinal Chemistry, 2022).

In the test the target is P. falciparum apicoplast DNA polymerase (Pf-apPOL) (Plasmodium falciparum, UniProt Q8ILY1). Kind of test: Fluorescence-based high-throughput DNA polymerase assay (molecular beacon), primary screen and dose-response. To be noted: for DNA Pol: unit not given, 90 min, 10 µM; for IC50: supplemental file 2, sheet IC50 nontoxic compounds, Pf-apPOL. Type of test: biochemical. As to the method: The HT assay employs a molecular beacon, a stem-loop DNA template with a Cy3 dye and the Black Hole Quencher on the 3′ and 5′ ends of the DNA, respectively. Pf-apPOL concentration is based on a calculated absorptivity of ε280 = 56750 M^−1 cm^−1. Reactions were carried out at 25 °C, using Corning 3575 […] (well-volume, 20 µL). Assays testing for compound inhibition composed of reaction buffer (pH 7.9 in 50 mM potassium acetate, 20 mM Tris-acetate and 10 mM magnesium acetate), Pf-apPOL (20 nM), DNA substrate (20 nM), dNTPs (6 µM), and compound (10 µM in DMSO). The DNA and nucleotide substrates (dNTPs) were at concentrations of 20 nM and 6 µM, respectively, in the assay. Pf-apPOL was incubated in the reaction buffer with dNTPs and the compound of interest (10 µM, in the assay) at 25 °C for 10 min. The DNA substrate was then added and the reaction was allowed to proceed for 90 min at 25 °C.
Chain of P. falciparum apicoplast DNA polymerase (Pf-apPOL) (Q8ILY1 entry or part of it): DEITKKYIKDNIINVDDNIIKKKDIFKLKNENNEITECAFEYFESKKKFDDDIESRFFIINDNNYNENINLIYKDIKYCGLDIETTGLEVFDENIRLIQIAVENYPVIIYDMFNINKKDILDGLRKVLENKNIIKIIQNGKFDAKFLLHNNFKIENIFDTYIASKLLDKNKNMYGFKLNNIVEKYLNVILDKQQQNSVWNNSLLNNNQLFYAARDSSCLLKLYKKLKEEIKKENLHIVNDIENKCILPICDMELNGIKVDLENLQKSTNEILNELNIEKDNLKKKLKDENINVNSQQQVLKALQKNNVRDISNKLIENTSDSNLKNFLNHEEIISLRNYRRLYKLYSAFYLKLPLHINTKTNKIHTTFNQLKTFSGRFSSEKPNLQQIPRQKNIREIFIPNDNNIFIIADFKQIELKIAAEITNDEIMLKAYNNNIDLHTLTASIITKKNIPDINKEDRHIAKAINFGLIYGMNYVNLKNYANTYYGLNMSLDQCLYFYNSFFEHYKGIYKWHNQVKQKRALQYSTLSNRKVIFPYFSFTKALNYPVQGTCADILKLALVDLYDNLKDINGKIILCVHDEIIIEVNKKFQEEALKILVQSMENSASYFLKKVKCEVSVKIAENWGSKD
Each assay plate contained 16 negative controls (no Pf-apPOL, DMSO present) and 16 positive controls (Pf-apPOL present, no DMSO). The fluorescence of each well was determined using a BioTek Synergy Neo fluorescence plate reader using excitation and emission wavelengths of 555 and 570 nm, respectively.
In the above, Min is the average of fluorescence emission of the negative controls (substrate only), Max the average fluorescence emission from the positive controls (enzyme + substrate), and Test the emission from the assays in the presence of compounds (enzyme + compound + substrates). […] […] The IC50 of each compound was determined using Equation (2): (2) IC50= Vmax/(1+ (I/IC50)^n)
In the above, n measures cooperativity, with n > 1 indicating synergistic binding of more than a single molecule of the compound.
To identify apPOL inhibitors we utilised our previously developed high-throughput DNA polymerase assay. The HT assay is based on a molecular beacon DNA template that forms a stem-loop with a Cy3 dye and the Black Hole Quencher on the 3′ and 5′ ends of the DNA, respectively. DNA polymerase activity extends an annealed primer through the stem region, displacing the fluorophore from the quencher, thereby increasing its fluorescence (Figure 1(A)). The assay accurately recapitulates the kinetic behaviour of apPOL, as measured through more conventional low-throughput gel-based assays. The Z′ factor for the assay described here was 0.9 across all plates (data not shown).
Figure 1. High-throughput screening. (A) The fluorescent-based DNA polymerase assay used to screen the compound libraries. The DNA template strand is a hairpin loop with a primer annealed to the loop. The 3’ end of the primer is 11 bases away from the 6 bp duplex. Strand displacement activity of the DNA polymerase separates the Cy3 dye from the Black hole quencher leading to an increase in fluorescent signal. (B) The high-throughput assay workflow. The DNA polymerase is incubated with […] compound for 10 min prior to addition of the hairpin substrate. The reaction is quenched at 3 different time points and the fluorescent signal is measured and % inhibition is determined using the provided equation.

On to `COc1ccc(-c2c(C(F)(F)F)nn3c(=O)cc(-c4cccc([N+](=O)[O-])c4)[nH]c23)cc1` [Molecule 16, COc1ccc(cc1)c1c2[nH]c(cc(=O)n2nc1C(F)(F)F)c1cccc(c1)N(=O)=O], for which the “DNA Pol” value was found to be 98 ('DNA Pol' of the 186 hits list (primary screen result)) and 98 (primary screen value of the library well). In addition, the “% inhibition Apo pol 10'” value (DRC-1, concentration 2.5) came to 21.756%; the “% inhibition Apo pol 10'” value (DRC-1, concentration 5) is on record as 31.6281%; the “% inhibition Apo pol 10'” value (DRC-1, concentration 10) came out at 53.4209%; the “% inhibition Apo pol 10'” value (DRC-1, concentration 20) is on record as 92.9592%; the “% inhibition Apo pol 10'” value (DRC-1, concentration 40) was determined as 96.2671%; the “% inhibition Apo pol 10'” value (DRC-1, concentration 80) stood at 97.8824%. For the same molecule, the “% inhibition Apol 90'” value was found to be 17.6214% (DRC-1, 90', concentration 2.5); 24.4098% (DRC-1, 90', concentration 5); 48.4616% (DRC-1, 90', concentration 10); 90.3483% (DRC-1, 90', concentration 20); 97.371% (DRC-1, 90', concentration 40); 97.5048% (DRC-1, 90', concentration 80). Further, the “% inhibition apPOL 180'” value (DRC-1, 180', concentration 2.5) came out at 12.6653%; the “% inhibition apPOL 180'” value (DRC-1, 180', concentration 5) amounted to 14.5865%; the “% inhibition apPOL 180'” value (DRC-1, 180', concentration 10) is listed as 38.3358%; the “% inhibition apPOL 180'” value (DRC-1, 180', concentration 20) worked out at 87.8097%; the “% inhibition apPOL 180'” value (DRC-1, 180', concentration 40) was 96.7933%; the “% inhibition apPOL 180'” value (DRC-1, 180', concentration 80) worked out at 96.9215%. For the same molecule, the “% inhibition apPOL 180'” value (DRC-2, 180', concentration 20 (unit not given)) is reported as 65%; the “% inhibition apPOL 180'” value (DRC-2, 180', concentration 40 (unit not given)) is 75%; the “% inhibition apPOL 180'” value (DRC-2, 180', concentration 2.5) is given as 9%; the “% inhibition apPOL 180'” value (DRC-2, 180', concentration 5) was determined as 7.4%; the “% inhibition apPOL 180'” value (DRC-2, 180', concentration 10) came out at 23%; the “% inhibition apPOL 180'” value (DRC-2, 180', concentration 20) was found to be 65%. Also, the “% inhibition apPOL 180'” value amounted to 75% (DRC-2, 180', concentration 40) and 85% (DRC-2, 180', concentration 80). Besides, the “% inhibition Apol 40'” value reads like this: (DRC-2, 40', concentration 2.5 (unit not given)) 13%; (DRC-2, 40', concentration 40 (unit not given)) 75%; (DRC-2, 40', concentration 2.5) 13%; (DRC-2, 40', concentration 5) 16%; (DRC-2, 40', concentration 10) 33%; (DRC-2, 40', concentration 20) 68%. Also, the “% inhibition Apol 40'” value is recorded as 75% (DRC-2, 40', concentration 40) and 79% (DRC-2, 40', concentration 80). In addition, the “% inhibition ApPOL 90'” value reads like this: (DRC-2, 90', concentration 5 (unit not given)) 14%; (DRC-2, 90', concentration 2.5) 13%; (DRC-2, 90', concentration 2.5 (unit not given)) 13%; (DRC-2, 90', concentration 5) 14%; (DRC-2, 90', concentration 10) 31%; (DRC-2, 90', concentration 20) 69%. The “% inhibition ApPOL 90'” value was determined as 77% (DRC-2, 90', concentration 40) and 83% (DRC-2, 90', concentration 80). The “% inhibition Apo pol 5'” value (DRC-2, concentration 2.5) is on record as 10%; the “% inhibition Apo pol 5'” value (DRC-2, concentration 5) is 14%; the “% inhibition Apo pol 5'” value (DRC-2, concentration 5 (unit not given)) is given as 14%; the “% inhibition Apo pol 5'” value (DRC-2, concentration 10) stood at 28%; the “% inhibition Apo pol 5'” value (DRC-2, concentration 20) stood at 58%; the “% inhibition Apo pol 5'” value (DRC-2, concentration 40) is on record as 62%. Besides, the “% inhibition Apo pol 5'” value was determined as 65% (DRC-2, concentration 80) and 65% (DRC-2, concentration 80 (unit not given)).

Regarding `COc1cc(Cl)c(C)cc1NC(=O)Cn1ccc2c(=O)[nH]ccc21` [Molecule 33], the half-inhibitory concentration (IC50) came to 10.3 µM.

Consider `Cc1cccc(CC(=O)N2CCc3c(nc4cc(-c5ccccc5)[nH]n4c3=O)C2)c1` [Molecule 12], for which the 50% inhibitory concentration (IC50) was determined as 5.56 µM.
